Assay [1] concerns the target T1, GALA (β-galactosidase from Bacillus circulans) (Niallia circulans, UniProt E5RWQ2).
T1 construct: gene bga; codon-optimised synthetic gene (galAm) with His-tag, secreted from Pichia pastoris GS115 (pPICZαA); HisTrap and gel filtration; predicted 1703 residues, 190 kDa; glycosylated
The assay is described as follows: o-nitrophenol release, absorbance at […] nm. Type of assay: biochemical. To be noted: 0.25% oNPG, 20 mM phosphate-citrate pH 6.0, 45 °C, 15 min.

Assay [2] has as its target T1, GALA (β-galactosidase from Bacillus circulans). The assay is described as follows: HPLC and TLC of hydrolysis and transgalactosylation products. Type of assay: biochemical. To be noted: 200-500 g/L lactose, 0.1 M phosphate-citrate pH 5-7, 30-50 °C; also galactosyl acceptor.

T1 sequence (E5RWQ2 24-1737): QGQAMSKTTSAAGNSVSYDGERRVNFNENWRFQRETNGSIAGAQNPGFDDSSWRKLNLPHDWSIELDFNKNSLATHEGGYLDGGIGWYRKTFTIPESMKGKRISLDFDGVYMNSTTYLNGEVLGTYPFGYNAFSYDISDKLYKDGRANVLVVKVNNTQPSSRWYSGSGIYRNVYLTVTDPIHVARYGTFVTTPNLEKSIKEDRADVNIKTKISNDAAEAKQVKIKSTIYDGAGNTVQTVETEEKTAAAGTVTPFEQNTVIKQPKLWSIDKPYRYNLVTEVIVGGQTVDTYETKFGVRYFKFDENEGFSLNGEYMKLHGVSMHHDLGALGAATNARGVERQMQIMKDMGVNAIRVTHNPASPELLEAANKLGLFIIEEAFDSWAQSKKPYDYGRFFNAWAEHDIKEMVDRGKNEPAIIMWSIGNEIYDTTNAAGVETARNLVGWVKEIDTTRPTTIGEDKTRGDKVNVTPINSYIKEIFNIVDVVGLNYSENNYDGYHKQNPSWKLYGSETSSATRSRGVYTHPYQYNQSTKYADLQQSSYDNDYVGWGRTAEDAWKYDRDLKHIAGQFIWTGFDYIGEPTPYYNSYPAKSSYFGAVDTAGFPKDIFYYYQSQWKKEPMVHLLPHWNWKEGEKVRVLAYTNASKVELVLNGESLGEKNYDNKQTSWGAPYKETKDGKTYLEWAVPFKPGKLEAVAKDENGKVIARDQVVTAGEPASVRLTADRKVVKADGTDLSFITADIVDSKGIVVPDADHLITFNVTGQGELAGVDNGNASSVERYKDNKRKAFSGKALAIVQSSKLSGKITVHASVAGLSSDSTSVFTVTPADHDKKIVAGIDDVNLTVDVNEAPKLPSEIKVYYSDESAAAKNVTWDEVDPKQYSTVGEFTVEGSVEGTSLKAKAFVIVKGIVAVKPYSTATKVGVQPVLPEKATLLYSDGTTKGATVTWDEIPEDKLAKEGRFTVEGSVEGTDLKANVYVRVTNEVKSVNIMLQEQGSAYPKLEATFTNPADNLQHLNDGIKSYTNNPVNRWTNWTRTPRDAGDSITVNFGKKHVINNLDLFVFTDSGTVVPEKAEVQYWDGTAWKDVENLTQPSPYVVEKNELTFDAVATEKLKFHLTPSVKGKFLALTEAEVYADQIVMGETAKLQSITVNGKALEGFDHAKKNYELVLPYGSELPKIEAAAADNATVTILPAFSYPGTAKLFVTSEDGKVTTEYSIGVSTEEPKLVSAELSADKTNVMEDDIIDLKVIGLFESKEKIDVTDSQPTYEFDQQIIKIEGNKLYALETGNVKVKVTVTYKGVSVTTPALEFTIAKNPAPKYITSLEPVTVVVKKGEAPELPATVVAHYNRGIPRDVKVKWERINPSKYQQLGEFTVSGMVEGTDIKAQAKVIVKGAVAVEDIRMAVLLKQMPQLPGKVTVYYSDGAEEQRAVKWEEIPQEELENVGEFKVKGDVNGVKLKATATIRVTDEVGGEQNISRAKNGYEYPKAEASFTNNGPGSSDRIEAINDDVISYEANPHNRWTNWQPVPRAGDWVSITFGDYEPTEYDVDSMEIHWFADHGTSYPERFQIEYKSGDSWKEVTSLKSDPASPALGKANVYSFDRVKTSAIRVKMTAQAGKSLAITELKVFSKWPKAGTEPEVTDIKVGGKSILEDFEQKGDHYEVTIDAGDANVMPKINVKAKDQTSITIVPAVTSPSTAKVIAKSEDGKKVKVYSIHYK

For `O=[N+]([O-])c1ccccc1O[C@@H]1O[C@H](CO)[C@H](O)[C@H](O)[C@H]1O` [O-nitrophenyl-β-D-galactopyranoside], the “o-nitrophenol release, absorbance at 420 nm” value in assay [1] is “The experiments were carried out three times using ONPG as the substrate”.

For the molecule `OC[C@H]1O[C@@H](O[C@H]2[C@H](O)[C@@H](O)C(O)O[C@@H]2CO)[C@H](O)[C@@H](O)[C@H]1O` (some centres unmarked) [lactose], the “HPLC and TLC of hydrolysis and transgalactosylation products” value in assay [2] is reported as “enzymatic transgalactosylation activity of the β-galactosidase, using lactose as the substrate”.

(Values after PMC8806947, “β-galactosidase GALA from Bacillus circulans with high transgalactosylation activity” (Bioengineered, 2021).)
